Source: PMC8523698, “Preclinical characterization of an intravenous coronavirus 3CL protease inhibitor for the potential treatment of COVID19” (Nature Communications, 2021)
“And” between values parts separate entries of the source, which are not always exact repeats. Identical values can stand only once. Like-named read-outs stand apart in the source and are kept apart here.

What was measured:
OCT1 = target: T1, OCT1 (Homo sapiens, UniProt O15245); assay: Transporter inhibition using transfected HEK293 cells; format: in vitro ADME; details: IC50, [14C]Metformin (10 µM)
T1 construct: expressed in transfected cells; host or cells: HEK293
T1 sequence (O15245 1-554): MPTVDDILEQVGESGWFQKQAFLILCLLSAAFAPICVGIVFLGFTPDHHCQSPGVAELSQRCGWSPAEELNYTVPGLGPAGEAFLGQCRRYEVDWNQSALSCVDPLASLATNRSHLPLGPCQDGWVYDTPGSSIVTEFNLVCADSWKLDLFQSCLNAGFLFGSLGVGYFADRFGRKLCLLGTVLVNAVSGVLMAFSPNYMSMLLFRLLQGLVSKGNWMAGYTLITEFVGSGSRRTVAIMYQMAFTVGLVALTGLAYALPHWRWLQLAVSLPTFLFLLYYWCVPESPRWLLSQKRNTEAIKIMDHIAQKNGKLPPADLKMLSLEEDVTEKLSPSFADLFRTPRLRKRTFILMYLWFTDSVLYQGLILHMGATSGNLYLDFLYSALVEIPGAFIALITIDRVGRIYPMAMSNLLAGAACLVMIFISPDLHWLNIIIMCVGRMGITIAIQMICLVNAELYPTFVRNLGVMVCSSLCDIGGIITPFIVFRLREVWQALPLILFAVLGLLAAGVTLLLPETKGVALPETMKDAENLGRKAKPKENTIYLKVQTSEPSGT

CYP3A4/5 = assay: in vitro; details: human, microsomes, pH 7.4, Percent of Control Activity
[1] = Plasma protein binding by equilibrium dialysis; details: for fraction unbound at 6 h, 5 uM / fraction unbound at 6 h: human, plasma
[2] = Plasma protein binding by equilibrium dialysis; details: for fraction unbound at 6 h, 5 uM / fraction unbound at 6 h: rat, plasma
CYP2C9 = CYP2C9 (Homo sapiens, UniProt P11712); assay: Reversible CYP inhibition in human liver microsomes
Chain of CYP2C9 (P11712 whole entry): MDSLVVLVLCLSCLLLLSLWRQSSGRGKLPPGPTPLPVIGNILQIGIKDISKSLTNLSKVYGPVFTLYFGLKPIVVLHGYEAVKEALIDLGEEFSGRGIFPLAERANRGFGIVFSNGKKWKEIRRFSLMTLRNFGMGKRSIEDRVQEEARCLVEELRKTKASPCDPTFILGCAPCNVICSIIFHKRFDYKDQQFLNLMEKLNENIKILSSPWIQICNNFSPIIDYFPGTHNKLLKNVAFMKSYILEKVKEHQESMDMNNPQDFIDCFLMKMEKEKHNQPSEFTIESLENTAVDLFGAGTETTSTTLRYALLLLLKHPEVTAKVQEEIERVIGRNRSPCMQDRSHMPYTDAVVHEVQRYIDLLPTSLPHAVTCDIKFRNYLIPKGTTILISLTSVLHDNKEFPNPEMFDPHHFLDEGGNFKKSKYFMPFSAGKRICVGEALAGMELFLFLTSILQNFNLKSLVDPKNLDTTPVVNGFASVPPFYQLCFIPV

OAT3 = target: T2, OAT3 (Homo sapiens, UniProt Q8TCC7); assay: Transporter inhibition using transfected HEK293 cells
T2 sequence (Q8TCC7 1-542): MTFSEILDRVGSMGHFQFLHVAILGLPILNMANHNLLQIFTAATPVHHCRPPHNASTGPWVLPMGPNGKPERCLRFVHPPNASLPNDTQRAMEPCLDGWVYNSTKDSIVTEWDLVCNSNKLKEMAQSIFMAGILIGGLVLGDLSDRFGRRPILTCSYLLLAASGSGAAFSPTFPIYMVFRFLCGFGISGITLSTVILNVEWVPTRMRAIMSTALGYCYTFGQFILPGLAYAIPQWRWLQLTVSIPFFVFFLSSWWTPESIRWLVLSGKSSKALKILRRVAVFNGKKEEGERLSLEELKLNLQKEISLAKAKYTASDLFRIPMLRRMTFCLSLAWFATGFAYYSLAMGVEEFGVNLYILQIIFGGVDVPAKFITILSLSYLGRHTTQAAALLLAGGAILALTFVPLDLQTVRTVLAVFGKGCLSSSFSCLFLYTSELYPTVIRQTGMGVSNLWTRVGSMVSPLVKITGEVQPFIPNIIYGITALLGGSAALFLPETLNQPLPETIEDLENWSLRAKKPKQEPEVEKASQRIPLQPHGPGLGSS

[3] = Human blood hemocompatibility (hemolysis, flocculation)
[4] = CYP 3A4/5 (mdz), 30-Minute Preincubation
[5] = CYP 3A4/5 (mdz), Zero-Minute Preincubation
[6] = CYP 3A4/5 (tst), 30-Minute Preincubation
[7] = CYP 3A4/5 (tst), Zero-Minute Preincubation

COc1cccc2[nH]c(C(=O)N[C@@H](CC(C)C)C(=O)N[C@@H](C[C@@H]3CCNC3=O)C(=O)CO)cc12 [PF-00835231]
IC50 (OCT1): 36.3 µM
IC50 (OCT1; human, HEK293 cells stably transfected with OCT1, pH 7.4, probe [14C]-metformin (10 µM)): > 20 µM
activity at 0.1 µM (CYP3A4/5; CYP 3A4/5 (mdz), 0.1 µM, 30-Minute Preincubation): 97.8%
activity at 0.1 µM (CYP3A4/5; CYP 3A4/5 (mdz), 0.1 µM, Zero-Minute Preincubation): 95.2%
activity at 0.214 µM (CYP3A4/5; CYP 3A4/5 (mdz), 0.214 µM, 30-Minute Preincubation): 121%
activity at 0.214 µM (CYP3A4/5; CYP 3A4/5 (mdz), 0.214 µM, Zero-Minute Preincubation): 98.7%
activity at 0.979 µM (CYP3A4/5; CYP 3A4/5 (mdz), 0.979 µM, 30-Minute Preincubation): 99.8%
activity at 0.979 µM (CYP3A4/5; CYP 3A4/5 (mdz), 0.979 µM, Zero-Minute Preincubation): 95.5%
activity at 2.09 µM (CYP3A4/5; CYP 3A4/5 (mdz), 2.09 µM, 30-Minute Preincubation): 99.7%
activity at 2.09 µM (CYP3A4/5; CYP 3A4/5 (mdz), 2.09 µM, Zero-Minute Preincubation): 97.6%
activity at 4.48 µM (CYP3A4/5; [4]): 101%
activity at 4.48 µM (CYP3A4/5; [5]): 110%
activity at 20.5 µM (CYP3A4/5; [4]): 88.2%
activity at 20.5 µM (CYP3A4/5; [5]): 108%
activity at 43.8 µM (CYP3A4/5; [4]): 77.3%
activity at 43.8 µM (CYP3A4/5; [5]): 101%
activity at 93.5 µM (CYP3A4/5; [4]): 64.9%
activity at 93.5 µM (CYP3A4/5; [5]): 107%
activity at 200 µM (CYP3A4/5; [5]): 104%
activity at 30 min, 0.1 µM (CYP3A4/5; CYP 3A4/5 (tst), 0.1 µM, 30-Minute Preincubation): 87.1%
activity at 0.1 µM (CYP3A4/5; CYP 3A4/5 (tst), 0.1 µM, Zero-Minute Preincubation): 103%
activity at 0 min, 0.214 µM (CYP3A4/5; CYP 3A4/5 (tst), 0.214 µM, Zero-Minute Preincubation): 102%
activity at 30 min, 0.979 µM (CYP3A4/5; CYP 3A4/5 (tst), 0.979 µM, 30-Minute Preincubation): 97.6%
activity at 0 min, 2.09 µM (CYP3A4/5; CYP 3A4/5 (tst), 2.09 µM, Zero-Minute Preincubation): 98.1%
activity at 4.48 µM (CYP3A4/5; [6]): 101%
activity at 20.5 µM (CYP3A4/5; [6]): 83.2%
activity at 20.5 µM (CYP3A4/5; [7]): 75.8%
activity at 43.8 µM (CYP3A4/5; [6]): 55.5%
activity at 43.8 µM (CYP3A4/5; [7]): 79.9%
activity at 93.5 µM (CYP3A4/5; [7]): 74.9%
activity at 200 µM (CYP3A4/5; [6]): 24.3%
Individual fraction unbound ([1]; human plasma, 5.0 uM, replicates Day 1-3): 0.474 and 0.429 and 0.385 and 0.458 and 0.463 and 0.507 and 0.437 and 0.428 and 0.477 and 0.486
fraction unbound at 6 h, 5 uM ([1]; pH 7.4, Fraction unbound, Geomean, human plasma, 5.0 uM, n 12): 0.449
fraction unbound at 6 h, 5 uM ([1]; pH 7.4, Individual fraction unbound, human plasma, 5.0 uM, replicates Day 1-3): 0.423
fraction unbound at 6 h ([1]; pH 7.4, Measured plasma fu / Human plasma fu, human plasma): 0.449
fraction unbound at 6 h ([1]; pH 7.4, Unbound fraction fu (%CV), human plasma): 0.449
fraction unbound at 6 h, 5 uM ([1]; pH 7.4, fraction unbound Geomean, human plasma, 5.0 uM, n=12): 0.449
fraction unbound at 6 h ([1]; pH 7.4, fu, fu,plasma, Simcyp input parameter (User), substrate): 0.449
Individual fraction unbound ([2]; Rat Wistar han plasma, 5.0 uM, replicates Day 1-3): 0.368 and 0.323 and 0.339 and 0.35 and 0.268 and 0.363 and 0.364 and 0.263 and 0.326 and 0.358 and 0.285
fraction unbound at 6 h, 5 uM ([2]; Wistar Han, pH 7.4, Fraction unbound, Geomean, Rat plasma, 5.0 uM, n 12): 0.327
fraction unbound at 6 h, 5 uM ([2]; Wistar Han, pH 7.4, Individual fraction unbound, Rat Wistar han plasma, 5.0 uM, replicates Day 1-3): 0.343
fraction unbound at 6 h ([2]; Wistar Hannover, pH 7.4, Plasma fu, Vdss input): 0.327
fraction unbound at 6 h ([2]; Wistar Hannover, pH 7.4, Unbound fraction fu (%CV), rat plasma (PF-07304814 Sprague-Dawley, PF-00835231 Wistar Hannover)): 0.327
fraction unbound at 6 h, 5 uM ([2]; Wistar Hannover, pH 7.4, fraction unbound Geomean, rat plasma, 5.0 uM, n=12): 0.327
Percent of Control Activity (CYP2C9; CYP 2C9, 0.1 µM, 30-Minute Preincubation, 0.1 µM): 101.5% and 104.7%
Percent of Control Activity (CYP2C9; CYP 2C9, 0.1 µM, Zero-Minute Preincubation, 0.1 µM): 113.8% and 92.8%
Percent of Control Activity (CYP2C9; CYP 2C9, 0.214 µM, 30-Minute Preincubation, 0.214 µM): 103.1% and 106.7%
Percent of Control Activity (CYP2C9; CYP 2C9, 0.214 µM, Zero-Minute Preincubation, 0.214 µM): 100.5% and 101.3%
Percent of Control Activity (CYP2C9; CYP 2C9, 0.979 µM, 30-Minute Preincubation, 0.979 µM): 104.6% and 107.1%
Percent of Control Activity (CYP2C9; CYP 2C9, 0.979 µM, Zero-Minute Preincubation, 0.979 µM): 107.0%
Percent of Control Activity (CYP2C9; CYP 2C9, 2.09 µM, 30-Minute Preincubation, 2.09 µM): 102.9% and 114.0%
Percent of Control Activity (CYP2C9; CYP 2C9, 2.09 µM, Zero-Minute Preincubation, 2.09 µM): 97.5%
Percent of Control Activity (CYP2C9; CYP 2C9, 4.48 µM, 30-Minute Preincubation, 4.48 µM): 102.5% and 104.2%
Percent of Control Activity (CYP2C9; CYP 2C9, 4.48 µM, Zero-Minute Preincubation, 4.48 µM): 95.3% and 94.9%
Percent of Control Activity (CYP2C9; CYP 2C9, 20.5 µM, 30-Minute Preincubation, 20.5 µM): 101.2% and 96.3%
Percent of Control Activity (CYP2C9; CYP 2C9, 20.5 µM, Zero-Minute Preincubation, 20.5 µM): 93.2%
Percent of Control Activity (CYP2C9; CYP 2C9, 43.8 µM, 30-Minute Preincubation, 43.8 µM): 91.9% and 89.1%
Percent of Control Activity (CYP2C9; CYP 2C9, 43.8 µM, Zero-Minute Preincubation, 43.8 µM): 85.3% and 88.3%
Percent of Control Activity (CYP2C9; CYP 2C9, 93.5 µM, 30-Minute Preincubation, 93.5 µM): 76.4% and 76.0%
Percent of Control Activity (CYP2C9; CYP 2C9, 93.5 µM, Zero-Minute Preincubation, 93.5 µM): 76.7% and 76.3%
Percent of Control Activity (CYP2C9; CYP 2C9, 200 µM, 30-Minute Preincubation, 200 µM): 74.9% and 59.1%
Percent of Control Activity (CYP2C9; CYP 2C9, 200 µM, Zero-Minute Preincubation, 200 µM): 71.9%
IC50 (CYP2C9; human, microsomes, pH 7.4): > 200 µM
activity at 0.1 µM (CYP2C9; human, microsomes, pH 7.4, Percent of Control Activity, CYP 2C9, 0.1 µM, 30-Minute Preincubation): 108%
activity at 0.214 µM (CYP2C9; human, microsomes, pH 7.4, Percent of Control Activity, CYP 2C9, 0.214 µM, 30-Minute Preincubation): 102%
activity at 0.214 µM (CYP2C9; human, microsomes, pH 7.4, Percent of Control Activity, CYP 2C9, 0.214 µM, Zero-Minute Preincubation): 102%
activity at 0.979 µM (CYP2C9; human, microsomes, pH 7.4, Percent of Control Activity, CYP 2C9, 0.979 µM, 30-Minute Preincubation): 103%
activity at 0.979 µM (CYP2C9; human, microsomes, pH 7.4, Percent of Control Activity, CYP 2C9, 0.979 µM, Zero-Minute Preincubation): 99.1%
activity at 2.09 µM (CYP2C9; human, microsomes, pH 7.4, Percent of Control Activity, CYP 2C9, 2.09 µM, 30-Minute Preincubation): 99.5%
activity at 2.09 µM (CYP2C9; human, microsomes, pH 7.4, Percent of Control Activity, CYP 2C9, 2.09 µM, Zero-Minute Preincubation): 110%
activity at 4.48 µM (CYP2C9; human, microsomes, pH 7.4, Percent of Control Activity, CYP 2C9, 4.48 µM, 30-Minute Preincubation): 102%
activity at 4.48 µM (CYP2C9; human, microsomes, pH 7.4, Percent of Control Activity, CYP 2C9, 4.48 µM, Zero-Minute Preincubation): 98.5%
activity at 20.5 µM (CYP2C9; human, microsomes, pH 7.4, Percent of Control Activity, CYP 2C9, 20.5 µM, 30-Minute Preincubation): 96.7%
activity at 20.5 µM (CYP2C9; human, microsomes, pH 7.4, Percent of Control Activity, CYP 2C9, 20.5 µM, Zero-Minute Preincubation): 104%
activity at 43.8 µM (CYP2C9; human, microsomes, pH 7.4, Percent of Control Activity, CYP 2C9, 43.8 µM, 30-Minute Preincubation): 101%
activity at 43.8 µM (CYP2C9; human, microsomes, pH 7.4, Percent of Control Activity, CYP 2C9, 43.8 µM, Zero-Minute Preincubation): 85.2%
activity at 93.5 µM (CYP2C9; human, microsomes, pH 7.4, Percent of Control Activity, CYP 2C9, 93.5 µM, 30-Minute Preincubation): 92%
activity at 93.5 µM (CYP2C9; human, microsomes, pH 7.4, Percent of Control Activity, CYP 2C9, 93.5 µM, Zero-Minute Preincubation): 92.6%
activity at 200 µM (CYP2C9; human, microsomes, pH 7.4, Percent of Control Activity, CYP 2C9, 200 µM, 30-Minute Preincubation): 77.1%
activity at 200 µM (CYP2C9; human, microsomes, pH 7.4, Percent of Control Activity, CYP 2C9, 200 µM, Zero-Minute Preincubation): 74.3%
IC50 (OAT3): > 300 µM
IC50 (OAT3; human, HEK293 cells transfected with OAT3, pH 7.4, probe [3H] estrone-3-sulfate (0.1 µM)): > 20 µM
hemolysis or flocculation/turbidity parameters [3]: no effect on hemolysis or flocculation/turbidity parameters
